Data taken from patent US20150265682A1, “THERAPEUTIC METHODS AND COMPOSITIONS FOR TREATING DIABETES” (Orient Europharma Co., Ltd., priority 2014, published 2015).

Tested on: C2C12 skeletal muscle cells
Test: Glycogen content assay in C2C12 myotubes
Type: cell-based
Settings: 30 minutes
Experimental: The C2C12 skeletal muscle cells were cultured in Dulbecco's modified Eagle's medium (DMEM; Gibco/Invitrogen, Carlsbad, Calif.), and the human hepatocellular carcinoma cell line, Hep3B, was cultured in Roswell Park Memorial Institute medium 1640 (RPMI 1640 medium; Gibco/Invitrogen, Carlsbad, Calif.). Cells were cultured at 37° C. in the humidified incubator supplied with 5% CO2. Culture mediums were supplemented with 4.5 mgmL^−1 glucose, penicillin 100 IUmL^−1, streptomycin 100 μgmL^−1 and 10% fetal bovine serum (Gibco/Invitrogen, Carlsbad, Calif.). Only C2C12 cells were then switched to 2% horse serum for 3 days after reaching the 70% confluence. Myotubes formation was achieved after 4 days of incubation, and the cells were used for subsequent experiments. Culture mediums were replaced by serum free DMEM or RPMI for 24 h before experiments (see e.g., procedure described in Sultan et al., 2006).
C2C12 and Hep3B cells were treated with 1 nM insulin, 100 μM metformin, and the assigned concentration of borapetoside A for 30 minutes. To develop the insulin resistance state of cells, C2C12 cells were incubated with IL-6 at 20 ngmL^−1 for 1 hour. Later, the cells were treated with 1 nM insulin, 100 μM metformin, and the assigned concentration of borapetoside A for 30 minutes. After the assigned treatment, cells were washed twice with phosphate buffered saline (PBS). Glycogen content was measured as previously described, with some modifications (see e.g., Savage et al., 2008). The protein concentrations of the cell lysates were determined by using Pierce BCA Protein Assay Kit (Thermo-Scientific, Rockford, Ill.). The glycogen content of each sample was normalized by total protein.

In the case of `C[C@@]12C[C@@H](c3ccoc3)OC(=O)[C@@H]1C[C@@H]1OC(=O)[C@@]3(O)[C@@H](O[C@@H]4O[C@H](CO)[C@@H](O)[C@H](O)[C@H]4O)CC[C@@H]2[C@@]13C` [Borapetoside A, borapetoside A], the “fold increase of glycogen” value (10^−6 mol/L) is reported as 1.49±0.15 fold, the “fold increase of glycogen” value (10^−7 mol/L) is reported as 1.28±0.04 fold and the “fold increase of glycogen” value (10^−8 mol/L) is reported as 1.53±0.10 fold.
